According to the NIST ThermoML archive (doi:10.1021/acs.jced.9b00419):
“And” between values parts separate entries of the source, which are not always exact repeats. Equal entries are not always repeated.

Conditions: Liquid, Transpiration method

CCCCCCOC(=O)CCCCC [hexanoic acid, hexyl ester]
Conditions	vapor or sublimation pressure
298.4 K	0.00313 kPa
303.2 K	0.0049 kPa
308 K	0.00732 kPa
312.8 K	0.01166 kPa and 0.01116 kPa
317.7 K	0.01667 kPa
322.6 K	0.0257 kPa
327.5 K	0.03605 kPa
332.4 K	0.05276 kPa
337.3 K	0.07541 kPa
342.3 K	0.1055 kPa
347.3 K	0.1426 kPa and 0.1453 kPa

CCCCCCC(CO)CCCC (stereo unspecified) [2-butyl-1-octanol]
Conditions	vapor or sublimation pressure [kPa]
308.1 K	0.00112
312.9 K	0.00195
317.8 K	0.00325
322.7 K	0.00526
327.6 K	0.00824
332.5 K	0.01315
337.5 K	0.02027
342.6 K	0.03024
347.6 K	0.0452
352.6 K	0.06767
